The source of these data is US20050009151A1, “Methods for the stereospecific and enantiomeric enrichment of beta-amino acids” (Pharmacia Corporation, priority 2003, published 2005).

Common to all, as to assay type: biochemical
Assay [1] deals with Variovorax paradoxus β-aminotransferase. Kind of assay: Resolution of substrates with Variovorax paradoxus β-aminotransferase. The procedure:
[…] Reactions were typically run at 1 ml scale with gentle shaking at 26° C.
(§1) 10 ul of 2N HCl was added to a plastic screw capped vial and 90ul of sample was then added. The pH of the mixture confirmed to be below 4 and the mixture was centrifuged in a microcentrifuge at maximum speed for about 2 minutes to remove precipitated materials.
(§2) Samples were derivatized using Marfey's reagent, N•-(2,4-dinitro-5-fluorophenyl)-L-alaninamide. A stock solution of 10 mg/mL in acetone of this reagent was prepared. Either 20 or 40 ul of bioconversion sample was added to 20 ul 1.3 M KHCO3. To this was added 80 ul of the stock reagent solution, the vial sealed tightly, and heated at 70° C. for 10 minutes. As needed, after cooling to room temperature, the heated samples were centrifuged to remove solids. The supernatants were analyzed using an Eclipse XDB-C8 column, 4.6×150 mm, eluting with methanol gradient in water, from 50% methanol to 100% methanol. Both solvents were acidified with 0.1% trifluoroacetic acid.
(§3) For resolution experiments, the area of the peak consumed (converted to keto acid) was compared to the area remaining of the unconsumed peak, on the assumption that none was converted.

Assay [2] concerns β-aminotransferase from Alcaligenes eutrophus. The experiment in a line: Resolution of substrates with cell lysate from Alcaligenes eutrophus. The procedure: (§4) A buffer consisting of 0.3M Tricine, 15 mM MgSO4, enough pyridoxal phosphate to impart a pale yellow color and 0.3M sodium glutamate (for deamination reactions) or 0.3 M 2-ketoglutarate monopotassium salt (for synthesis reactions) was prepared.
(§5) One part buffer was combined with two parts lysate and this mixture was then added to pre-weighed substrate to give a concentration of 1 mg/ml substrate. Reactions were typically run at 1 ml scale with gentle shaking at 26° C.
as §1, §2, §3

In assay [3] the test system is β-aminotransferase enzyme from Variovorax paradoxus (CC-KGbPHe-I14). Kind of assay: D-β-aminotransferase keto acid substrate specificity. To be noted: rate of conversion of D-β-phenylalanine to 3-keto-3-phenylpropionic acid as percent of the rate using α-ketoglutarate; 10 mg/ml α-keto acceptor, 1 hour, 37° C. The procedure: Semi-purified β-aminotransferase enzyme from Variovorax paradoxus (CC-KGbPHe-I14) was assayed using D-β-phenylalanine as the amino donor, in an assay consisting of 100 mM potassium phosphate, 2 mg/ml DL-β-phenylalanine, 10 mg/ml α-keto acceptor and 0.1 mM pyridoxal phosphate, at pH 8.0. The reactions were run at 37° C. with mild stirring for 1 hour. At 1 hour reaction time, 0.1 ml samples were withdrawn, acidified with addition of 0.1 ml 0.1N HCl, and centrifuged. The supernatant solution was collected into HPLC sample vials. Conversion of DL-β-phenylalanine to 3-keto-3-phenylpropionate was quantified using reverse phase HPLC. The following keto acids were screened for activity: α-ketoglutaric acid, oxaloacetic acid, pyruvic acid, 3-oxoadipic acid, 2-oxoadipic acid, 1,3-acetonedicarboxylic acid, and 4-ketopimelic acid. The relative rates of conversion of D-β-phenylalanine to 3-keto-3-phenylpropionic acid using the various keto acceptors is reported as percent of the rate using α-ketoglutarate, the experimentally determined preferred acceptor.

The test system of assay [4] is Variovorax paradoxus β-aminotransferase. Kind of assay: Synthesis of β-amino acid from β-keto acid with Variovorax paradoxus β-aminotransferase. To be noted: cell lysate, 19 hours. The procedure: as §4, §5, §1, §2
For synthesis experiments, in which β-keto acid was converted to β-amino acid, the area of the peak(s) was compared to a standard curve derived for β-phenylalanine.

Assay [5] has as its system β-aminotransferase enzyme from Variovorax paradoxus. The experiment in a line: D-β-aminotransferase amino donor specificity. To be noted: for substrate for the enzyme (amino donor): 2 mg/ml amino donor, 10 mg/ml α-ketoglutarate, 1 hour, 37° C. The protocol:
The same preparation of semi-purified β-aminotransferase enzyme from Variovorax paradoxus was then assayed using a-ketoglutarate as the keto acceptor, in an assay consisting of 100 mM potassium phosphate, 10 mg/ml α-ketoglutarate, 2 mg/ml amino donor and 0.1 mM pyridoxal phosphate, at pH 8.0. The reactions were run at 37° C. with mild stirring for 1 hour. At 1 hour reaction time, 0.1 ml samples were withdrawn, acidified with addition of 0.1 ml 0.1N HCl, and centrifuged. The supernatant solution was collected into HPLC sample vials. Conversion of an amino acid to the corresponding ketone was quantified using reverse phase HPLC. The following amino acids (as an amino donor) were screened for activity: α-(D)-phenylalanine, α-(L)-phenylalanine, β-(D)-phenylalanine, β-(L)-phenylalanine, (D)-3-amino-5-phenylpentanoic acid, and (L)-3-amino-5-phenylpentantoic acid.

Assay [6] has as its system Alcaligenes eutrophus L-β-aminotransferase. The experiment in a line: Substrate specificity of Alcaligenes eutrophus L-β-aminotransferase (crude cell homogenate). As to conditions: for MSB Culture Extract D(S)-b-Phe consumed at t = 1 Hr / MSB Culture Extract L(R)-b-Phe consumed at t = 1 Hr: cells grown in MSB; for MSB Culture Extract D(S)-b-Phe consumed at t = 1 Hr / MSB Culture Extract L(R)-b-Phe consumed at t = 1 Hr / NB Culture Extract of Alcaligenes eutrophus D(S)-b-Phe consumed at t = 1 Hr / NB Culture Extract of Alcaligenes eutrophus L(R)-b-Phe consumed at t = 1 Hr: keto acceptor with or without PLP as labelled; for NB Culture Extract of Alcaligenes eutrophus D(S)-b-Phe consumed at t = 1 Hr / NB Culture Extract of Alcaligenes eutrophus L(R)-b-Phe consumed at t = 1 Hr: cells grown in NB. The procedure: Cell-free homogenates were used in assays designed to determine substrate specificity. The assays contained: 0.1-0.3 mg/ml protein, 10 mg/ml keto acceptor, 1 mg/ml amino donor, 0.1 mM pyridoxal phosphate, and 100 mM potassium phosphate, at pH 8.0. The reactions were run at 37° C. with gentle stirring for 1 hour. At 1 hour reaction time, 0.1 ml samples were withdrawn, acidified with addition of 0.1 ml 0.1N HCl, and centrifuged. The supernatant solution was collected into HPLC sample vials. Conversion of amino acid to the corresponding ketone was quantified using reverse phase HPLC. Enzymatic activity was measured as the rate of conversion of amino donor in a one hour period. In a series of reactions, the enzymatic activity was determined with the following variables: inclusion or omission of pyridoxal phosphate, using α-ketoglutarate or pyruvate as a keto acceptor, and (D)- or (L)-β-phenylalanine as amino donor.

As to `N[C@H](CC(=O)O)c1ccccc1` (racemic) [β-phenylalanine], the “Peak consumption (later eluting peak)” value in assay [1] (cell lysate, 5 hours) is given as more than 99%; in assay [1] (cell lysate, 23 hours) it was 82%. In assay [2] (after one day), the “change in the concentration of the later eluting stereoisomer” value is given as “no detectable change”. Besides, the “earlier eluting peak remaining” value in assay [2] (after one day) is reported as “not detectable”.

Regarding `O=C(O)CC(=O)CC(=O)O` [1,3-Acetonedicarboxylic Acid], the “Relative Activity” value in assay [3] is on record as 0%.

In the case of `O=C(O)CCCC(=O)C(=O)O` [2-Oxoadipic Acid], in assay [3], the “Relative Activity” value amounted to 0.6%.

`NC1CCCCC1C(=O)O` (stereo not shown) [2-aminocyclohexanecarboxylic acid]: the “Peak consumption (later eluting peak(s))” value in assay [1] (cell lysate, 19 hours) is more than 99%.

On to `O=C(O)CCC(=O)CC(=O)O` [3-Oxoadipic Acid], for which the “Relative Activity” value in assay [3] was 6%.

With `CCCC(=O)CC(=O)O` [3-Oxohexanoic acid], the “product stereoisomer peak observed” value in assay [4] is reported as “only later eluting peak was observed”. Moreover, in assay [4] (approximately 50 mM substrate, approximately 60 mM glutamic acid), the “3-aminohexanoic acid formed, using beta-phenylalanine as standard” value is “approximately 1 mg/mL”.

Take `NC(CC(=O)O)c1cc2ccccc2o1` (stereo not shown) [3-amino-3-(2-benzofuryl))propanoic acid]: the “Peak consumption (later eluting peak)” value in assay [1] (cell lysate, 5 hours) is 98%.

In the case of `NC(CC(=O)O)c1ccco1` (stereo not shown) [3-amino-3-(2-furyl)propanoic acid], the “Peak consumption (earlier eluting peak)” value in assay [2] (21 hours) was found to be 73%; in assay [2] (21 hours, listed as 3-amino-3-(2-furyl) propanoic acid), 73%.

As to `NC(CC(=O)O)c1ccc2ccccc2c1` (stereo not shown) [3-amino-3-(2-naphthyl)propanoic acid], the “Peak consumption (later eluting peak)” value in assay [1] (cell lysate, 5 hours) stood at 50%.

Turning to `NC(CC(=O)O)c1cccnc1` (stereo not shown) [3-amino-3-(3-pyridyl)propanoic acid], the “Peak consumption (later eluting peak)” value in assay [1] (cell lysate, 5 hours) is more than 95%.

`NC(CC(=O)O)c1ccsc1` (stereo not shown) [3-amino-3-(3-thienyl)propanoic acid]: the “Peak consumption (earlier eluting peak)” value in assay [2] (21 hours) and in assay [2] (22 hours) was 82% in each case.

`NC(CC(=O)O)c1ccc(Oc2ccccc2)cc1` (stereo not shown) [3-amino-3-(4-phenoxyphenyl)propanoic acid]: the “Peak consumption (later eluting peak)” value in assay [1] (cell lysate, 5 hours) turned out to be 58%.

For the compound `NC(CC(=O)O)C1CCCCC1` (stereo not shown) [3-amino-3-cyclohexylpropanoic acid], in assay [1] (cell lysate, 2 hours), the “Peak consumption (later eluting peak)” value is more than 99%.

In the case of `NC(CC(=O)O)C1CC1` (stereo not shown) [3-amino-3-cyclopropylpropanoic acid], the “early eluting peak observed” value in assay [1] (cell lysate, 0.225 M substrate, 0.45 M alpha-ketoglutarate, pH 8.1, 18.2 hours) is on record as 99.5%. The “Peak consumption (later eluting peak)” value in assay [1] (cell lysate, 22 hours) worked out at 98%. For the same compound, the “Peak consumption (earlier eluting peak)” value in assay [2] (22 hours) is given as “approximately 42%”; in assay [2] (22 hours, listed as 3-amino-3-cyclopropyl propanoic acid), 42%.

For `CC(C)C(N)CC(=O)O` (stereo not shown) [3-amino-4-methylpentanoic acid], the “Peak consumption (later eluting peak)” value in assay [1] (cell lysate, 48 hours) is recorded as 65%; in assay [1] (cell lysate, 48 hours, listed as 3-amino-4-methylpentanoic), 65%.

As for `CCCC(N)CC(=O)O` (stereo not shown) [3-aminohexanoic acid], in assay [1] (cell lysate, 1 hour), the “Peak consumption (later eluting peak)” value is more than 99%.

`O=C(O)CCC(=O)CCC(=O)O` [4-Ketopimelic Acid]: the “Relative Activity” value in assay [3] worked out at 0%.

As to `N[C@H](CCc1ccccc1)CC(=O)O` [(D)-3-amino-5-phenylpenantoic acid, D- or (R)-3-amino-5-phenyl-pentanoic acid], in assay [5], the “substrate for the enzyme (amino donor)” value was “substrates for the enzyme”.

As for `N[C@@H](CCc1ccccc1)CC(=O)O` [(L)-3-amino-5-phenylpentantoic acid, L- or (S)-3-amino-5-phenyl-pentanoic acid], the “substrate for the enzyme (amino donor)” value in assay [5] is “Only β-(D)-phenylalanine and (D)-3-amino-5-phenylpenantoic acid were substrates”.

For `O=C(O)CC(=O)C(=O)O` [Oxaloacetic Acid], the “Relative Activity” value in assay [3] worked out at 54%.

Regarding `CC(=O)C(=O)O` [Pyruvic Acid], the “Relative Activity” value in assay [3] was found to be 14%. Further, in assay [6], the “MSB Culture Extract D(S)-b-Phe consumed at t = 1 Hr” value came out at 7.789, the “MSB Culture Extract L(R)-b-Phe consumed at t = 1 Hr” value is recorded as 45.1865, the “NB Culture Extract of Alcaligenes eutrophus D(S)-b-Phe consumed at t = 1 Hr” value turned out to be 3.37 and the “NB Culture Extract of Alcaligenes eutrophus L(R)-b-Phe consumed at t = 1 Hr” value is 48.61.

For `N[C@H](CC(=O)O)c1cccc([N+](=O)[O-])c1` [m-nitro-β-phenylalanine], the “Peak consumption (later eluting peak)” value in assay [1] (cell lysate, 23 hours) is 95%.

Take `N[C@H](CC(=O)O)c1ccccc1F` [o-fluoro-β-phenylalanine]: the “Peak consumption (later eluting peak)” value in assay [1] (cell lysate, 67 hours) was determined as 99%; in assay [1] (cell lysate, 67 hours, listed as o-fluoro-α-phenylalanine) it was 99%.

Turning to `N[C@H](CC(=O)O)c1ccc(F)cc1` [p-fluoro-β-phenylalanine], in assay [1] (cell lysate, 23 hours), the “Peak consumption (later eluting peak)” value was 82%.

As for `COc1ccc([C@H](N)CC(=O)O)cc1` [p-methoxy-β-phenylalanine], in assay [1] (cell lysate, 23 hours), the “Peak consumption (later eluting peak)” value is 80%.

In the case of `N[C@H](CC(=O)O)c1ccc([N+](=O)[O-])cc1` [p-nitro-β-phenylalanine], the “Peak consumption (later eluting peak)” value in assay [1] (sodium sulfate purified beta-aminotransferase, 30 minutes) was 98%; in assay [1] (sodium sulfate purified beta-aminotransferase, 30 minutes, listed as p-nitro-α-phenylalanine), “approximately 98%”. For the same compound, the “later eluting peak remaining” value in assay [1] (sodium sulfate purified beta-aminotransferase, after 1 hour) is listed as “not detected”. Also, the “change in the concentration of the early eluting stereoisomer” value in assay [1] (sodium sulfate purified beta-aminotransferase, after 18 hours) is given as “no detectable change”.

Take `N[C@H](Cc1ccccc1)C(=O)O` [α-(D)-phenylalanine]: in assay [5], the “substrate for the enzyme (amino donor)” value is “Only β-(D)-phenylalanine and (D)-3-amino-5-phenylpenantoic acid were substrates”.

Regarding `N[C@@H](Cc1ccccc1)C(=O)O` [α-(L)-phenylalanine], in assay [5], the “substrate for the enzyme (amino donor)” value is “Only β-(D)-phenylalanine and (D)-3-amino-5-phenylpenantoic acid were substrates”.

Turning to `O=C(O)CCC(=O)C(=O)O` [α-ketoglutarate], in assay [3], the “Relative Activity” value came out at 100%. Moreover, in assay [6], the “MSB Culture Extract D(S)-b-Phe consumed at t = 1 Hr” value is recorded as 0.966, the “MSB Culture Extract L(R)-b-Phe consumed at t = 1 Hr” value is recorded as 6.9281, the “NB Culture Extract of Alcaligenes eutrophus D(S)-b-Phe consumed at t = 1 Hr” value came out at 0.00 and the “NB Culture Extract of Alcaligenes eutrophus L(R)-b-Phe consumed at t = 1 Hr” value turned out to be 3.41.

For the compound `N[C@@H](CC(=O)O)c1ccccc1` [β-(D)-phenylalanine, D- or (S)-3-amino-3-phenylpropionic acid], the “substrate for the enzyme (amino donor)” value in assay [5] is “substrates for the enzyme”. Also, the “preference of the enzyme for the enantiomer” value in assay [5] (enzyme preferring α-ketoglutarate as amino acceptor, no activity on the L-enantiomer) is 100%.

Regarding `N[C@H](CC(=O)O)c1ccccc1` [β-(L)-phenylalanine, L- or (R)-3-amino-3-phenylpropionic acid], in assay [5], the “substrate for the enzyme (amino donor)” value was “Only β-(D)-phenylalanine and (D)-3-amino-5-phenylpenantoic acid were substrates”. For the same compound, the “preference of the enzyme for the enantiomer” value in assay [6] (enzyme preferring pyruvic acid as amino acceptor, no activity on the D-enantiomer) is 100%.
